# Substitutions are numbered along the chain they refer to. Where a SMILES comes first, the peptide text is derived from it. Bridges are numbered along the chain shown (N, C = ends).
# How the values were obtained:
# Test in all cases: Heterologous whole cell competition binding
# Details in all cases: heterologous competition of 125I-sCT(8-32), whole cells, mean ± S.E.M., SEM
# hCTR G369A = target: T1, hCTR G369A (Homo sapiens, UniProt P30988, G369A)
# T1 construct: c-Myc (N); expressed in transfected cells
# T1 sequence (P30988 25-474 G369A): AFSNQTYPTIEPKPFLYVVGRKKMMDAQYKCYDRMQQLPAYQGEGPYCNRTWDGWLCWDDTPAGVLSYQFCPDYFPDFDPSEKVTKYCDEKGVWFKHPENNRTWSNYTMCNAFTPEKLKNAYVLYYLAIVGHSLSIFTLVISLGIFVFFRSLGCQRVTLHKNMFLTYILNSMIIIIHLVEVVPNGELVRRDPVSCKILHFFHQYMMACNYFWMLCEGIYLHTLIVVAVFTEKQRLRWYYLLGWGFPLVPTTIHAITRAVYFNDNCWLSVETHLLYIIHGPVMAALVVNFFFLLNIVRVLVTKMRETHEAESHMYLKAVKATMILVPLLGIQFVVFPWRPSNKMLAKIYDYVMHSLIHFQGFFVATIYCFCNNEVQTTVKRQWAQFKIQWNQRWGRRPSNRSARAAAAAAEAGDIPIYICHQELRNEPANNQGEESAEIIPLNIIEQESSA
# Protocol: (§1) Following overnight incubation non-bound ligand was removed and radioactivity was determined using a gamma counter.
# (§2) Data were corrected for radioligand occupancy using the Cheng-Prusoff equation in Prism; as such data are reported as pKi. Emax and EC50 were estimated from concentration-response curves using with a 3-parameter logistic equation in Prism (v7). These values are a composite of functional affinity, efficacy and stimulus response coupling. […] Significance was accepted at P < 0.05.
# hCTR L297A = target: T2, hCTR L297A (Homo sapiens, UniProt P30988, L297A)
# T2 construct: c-Myc (N); expressed in transfected cells
# T2 sequence (P30988 25-474 L297A): T1 sequence (P30988 25-474 G369A) with L273A, A345G
# Protocol: as §1, §2
# hCTR V293A = target: T3, hCTR V293A (Homo sapiens, UniProt P30988, V293A)
# T3 construct: c-Myc (N); expressed in transfected cells
# T3 sequence (P30988 25-474 V293A): T1 sequence (P30988 25-474 G369A) with V269A, A345G
# Protocol: as §1, §2
# hCTR N365A = target: T4, hCTR N365A (Homo sapiens, UniProt P30988, N365A)
# T4 construct: c-Myc (N); expressed in transfected cells
# T4 sequence (P30988 25-474 N365A): T1 sequence (P30988 25-474 G369A) with N341A, A345G
# Protocol: as §1, §2
# hCTR N288A = target: T5, hCTR N288A (Homo sapiens, UniProt P30988, N288A)
# T5 construct: expressed in transfected cells
# T5 sequence (P30988 25-474 N288A): T1 sequence (P30988 25-474 G369A) with N264A, A345G
# Protocol: as §1, §2
compound,measurement,setting,value
CSCC[C@H](NC(=O)CNC(=O)[C@H](CO)NC(=O)[C@H](Cc1ccccc1)NC(=O)[C@H](CCCNC(=N)N)NC(=O)[C@H](Cc1c[nH]cn1)NC(=O)[C@H](Cc1ccccc1)NC(=O)[C@H](CC(N)=O)NC(=O)[C@H](CC(N)=O)NC(=O)[C@H](CC(C)C)NC(=O)[C@H](CC(N)=O)NC(=O)[C@H](CCCNC(=N)N)NC(=O)[C@H](Cc1c[nH]c2ccccc12)NC(=O)[C@H](Cc1ccc(O)cc1)NC(=O)[C@H](C)NC(=O)[C@H](CO)NC(=O)[C@H](CC(C)C)NC(=O)[C@@H](NC(=O)[C@@H]1CSSC[C@H](N)C(=O)N[C@@H](CO)C(=O)N[C@@H](CC(N)=O)C(=O)N[C@@H](CC(C)C)C(=O)N[C@@H](CO)C(=O)N[C@@H]([C@@H](C)O)C(=O)N1)C(C)C)C(=O)NCC(=O)N[C@@H](Cc1ccccc1)C(=O)NCC(=O)N1CCC[C@H]1C(=O)N[C@@H](CCC(=O)O)C(=O)N[C@H](C(=O)N1CCC[C@H]1C(N)=O)[C@@H](C)O [pCT] (H-CSNLSTCVLSAYWRNLNNFHRFSGMGFGPETP-NH2; disulfide 1-7),Ki,hCTR G369A,7.94 nM
same,Ki,hCTR L297A,15.5 nM
same,Ki,hCTR V293A,14.1 nM
same,Ki,hCTR N365A,2.09 nM
same,Ki,hCTR N288A,9.33 nM

# From publication PMC5908784, “Extracellular loops 2 and 3 of the calcitonin receptor selectively modify agonist binding and efficacy” (Biochemical Pharmacology, 2018)
